What was measured:
Type in all cases: biochemical
TF/FVIIa complex = target: T1, TF/FVIIa complex (Homo sapiens, UniProt P08709+P13726, DEL276-295); experiment: FVIIa activity assay (TF/VIIa catalytic activity toward S-2288); conditions: statement on Table 1 (FIG. 2(a))
T1 construct: proteolytic cleavage of the zymogen FVII to the active serine protease FVIIa; Truncated recombinant human tissue factor (e.g. composed of 243 amino acids) is expressed in E. coli; host or cells: E. coli (TF)
Protocol: Factor VIIa (FVIIa) activity, or the effect of TF and FVIIa interactions, can be determined in the presence of TF using FX and a small peptide (chromogenic) substrate or in the absence of TF using FX as substrate. Assays using FVIIa-specific chromogenic substrate S-2288 directly measures the effect of a compound on FVIIa catalytic activity. In this assay, 55 μl of TF/FVIIa complex (containing 10 nM TF and 10 nM VIIa) was first incubated with 5 μl of DMSO (or diluted DMSO) or compound, in a 96-well plate for 15 minutes at 37° C., then admixed with 20 μl of 8 mM S-2288. The reaction was incubated for 1–2 hours at 37° C. Absorbance at 405 nm was then measured after the reaction was quenched with 20 μl of 50% acetic acid. The percent inhibition of TF/VIIa activity was calculated from OD405 nm values in the absence and presence of a compound. […] Inhibition of TF/VIIa activity toward S-2288 by the two compounds would be expected if they were to bind to VIIa active site or prevent TF and VIIa from forming an active complex.

thrombin = target: T2, thrombin (Homo sapiens, UniProt P00734); experiment: Thrombin activity assay; conditions: statement on Table 1 (FIG. 2(a))
T2 construct: followed by addition of 10 μl of thrombin (20 nM); purchased Enzyme Research Laboratories Inc
Protocol: For thrombin activity assay, 55 μl of buffer was mixed with 5 μl of DMSO or compound, followed by addition of 10 μl of thrombin (20 nM). Mix and incubate at 37° C. for 10 minutes. Then 10 μl of substrate S-2238 was added and allowed to incubate at 37° C. for 15–20 minutes. Absorbance at 405 nm was then measured and the percent inhibition of thrombin activity was calculated from OD405 nm values in the absence and presence of a compound.

[1] = tested on: human plasma (TF-initiated clotting); experiment: Prothrombin time (PT) assay; conditions: lipidated recombinant tissue factor 1–3 nM, statement on FIG. 4
Protocol: Clot times are generally measured in seconds. Preferred PT assays are typically performed by adding a suitable amount (e.g. about 1 to 3 nM) of lipidated tissue factor to an assay solution that includes conventionally citrated plasma. The PT assay measures TF-mediated blood plasma clot time and is preferably performed by conducting the following steps: • 1) providing about 0.1 ml of citrated human plasma in a suitable assay solution, and combining same with between from about 0.5 μl to 10 μl of at least one compound to be tested (optionally dissolved in vehicle such as water or dimethylsulfoxide (DMSO)) and incubating same at room temperature for about 3 to 10 minutes, • 2) admixing into the solution from between about 0.2 ml (ca. 1–3 nM recombinant human tissue factor) and about 5–10 mM of calcium to initiate plasma clotting; and • 3) measuring the plasma clot time to determine the prothrombin clot time (PT).
The PT assay was performed at 37° C. with an Electra 800 (Medical Automation, Inc.). The PT reaction was initiated by adding 0.2 ml of lipidated recombinant human tissue factor into 0.105 ml of human plasma (Ci-Trol Control Level I, from VWR, Cat. No. 68100-336). […] Following mixing the compound (or DMSO) with plasma (Ci-Trol), 0.2 ml of lipidated reocombinant tissue factor (1–3 nM) is added to the plasma and clotting times were measured within 10 min.

FXa = target: T3, FXa (Homo sapiens, UniProt P00742); experiment: FXa activity assay; conditions: statement on Table 1 (FIG. 2(a))
T3 construct: FX is converted to FXa by TF/VIIa complex in the absence of any compound; purchased Enzyme Research Laboratories Inc
T3 sequence (P00742 235-488 limits assumed): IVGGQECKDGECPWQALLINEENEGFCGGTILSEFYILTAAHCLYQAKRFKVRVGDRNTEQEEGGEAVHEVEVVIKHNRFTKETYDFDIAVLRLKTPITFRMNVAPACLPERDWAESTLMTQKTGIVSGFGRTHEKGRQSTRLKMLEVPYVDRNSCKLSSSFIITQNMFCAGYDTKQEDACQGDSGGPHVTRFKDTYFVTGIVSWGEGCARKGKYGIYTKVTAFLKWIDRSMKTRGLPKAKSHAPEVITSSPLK
T3 sequence (P00742 41-179 limits assumed): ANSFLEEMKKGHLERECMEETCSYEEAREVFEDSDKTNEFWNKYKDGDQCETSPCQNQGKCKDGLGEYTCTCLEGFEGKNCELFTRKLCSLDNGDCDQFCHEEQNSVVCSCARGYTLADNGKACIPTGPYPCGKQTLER
Protocol: FX is converted to FXa by TF/VIIa complex in the absence of any compound. To do that, 54 μl of TF/VIIa (50 nM) was added to 27 ml of buffer in a 50-ml tube. Then 6 ml of FX (180 nM) was added and incubated at 37° C. for 15 minutes. Six ml of EDTA was added to stop FX activation. Five μl of compound or DMSO was placed in each well of a 96-well plate in duplicate, then 65 μl of FXa generated above was added to each well and mixed. After incubation for 15 minutes at 37° C., 10 μl of FXa substrate Spectrozyme FXa was added and incubated for 20 minutes at 37° C. Absorbance at 405 nm was then measured following addition of 20 μl of 50% acetic acid. The percent inhibition of FXa activity was calculated from OD405 nm values in the absence and presence of a compound.

| SMILES | effect on TF/VIIa catalytic activity toward S-2288 (TF/FVIIa complex) | inhibition of thrombin activity (thrombin) | effect on TF-initiated PT times (clotting time) [1] | inhibition of FXa activity (FXa) |
| --- | --- | --- | --- | --- |
| O=P(O)(O)C(CNc1cccc(O)c1)P(=O)(O)O [Compound 1, 1-(bisphosponate)-2-amino(3-hydroxyphenyl)ethyl] | do not have significant effect | do not inhibit thrombin activity | prolonged TF-initiated PT times significantly | do not inhibit FXa activity |
| O=P(O)(O)C(CNc1ccc(O)cc1)P(=O)(O)O [Compound 2] | do not have significant effect | do not inhibit thrombin activity | prolonged TF-initiated PT times significantly | do not inhibit FXa activity |

Reference: patent US7199113B2, “Pharmaceutically active compounds and methods of use thereof” (priority 1998, dated 2007)
